Results on 27 compounds are retold here after ChEMBL document CHEMBL4325848, “Quinoline and quinolone dimers and their biological activities: An overview” (Eur J Med Chem, 2019).

Usually IC50 stands for the concentration needed to halve the response being measured. Read a high IC50 as a need for much substance. The MIC is the least concentration at which growth counts as inhibited. A low value points to a more susceptible organism. As a reminder, the GI50 is the concentration that inhibits growth by half. A high value points to lower sensitivity of the cells. The CC50 is the concentration that lowers cell viability or growth by half. High values mean lower toxicity to the cells, low ones greater toxicity to the cells.

Series [1] relates to Plasmodium falciparum. The series is described as follows: Antiprotozoal activity against chloroquine-sensitive Plasmodium falciparum D6. The class given is functional, organism-based.
Series [2] relates to Plasmodium falciparum. Nature of the series: Antiprotozoal activity against chloroquine-resistant Plasmodium falciparum W2. The class given is functional, organism-based.
For series [3], the target named is Histone-lysine N-methyltransferase, H3 lysine-79 specific (Homo sapiens, UniProt Q8TEK3). Nature of the series: Inhibition of DOT1L (unknown origin).
Chain of Histone-lysine N-methyltransferase, H3 lysine-79 specific (Q8TEK3 whole entry): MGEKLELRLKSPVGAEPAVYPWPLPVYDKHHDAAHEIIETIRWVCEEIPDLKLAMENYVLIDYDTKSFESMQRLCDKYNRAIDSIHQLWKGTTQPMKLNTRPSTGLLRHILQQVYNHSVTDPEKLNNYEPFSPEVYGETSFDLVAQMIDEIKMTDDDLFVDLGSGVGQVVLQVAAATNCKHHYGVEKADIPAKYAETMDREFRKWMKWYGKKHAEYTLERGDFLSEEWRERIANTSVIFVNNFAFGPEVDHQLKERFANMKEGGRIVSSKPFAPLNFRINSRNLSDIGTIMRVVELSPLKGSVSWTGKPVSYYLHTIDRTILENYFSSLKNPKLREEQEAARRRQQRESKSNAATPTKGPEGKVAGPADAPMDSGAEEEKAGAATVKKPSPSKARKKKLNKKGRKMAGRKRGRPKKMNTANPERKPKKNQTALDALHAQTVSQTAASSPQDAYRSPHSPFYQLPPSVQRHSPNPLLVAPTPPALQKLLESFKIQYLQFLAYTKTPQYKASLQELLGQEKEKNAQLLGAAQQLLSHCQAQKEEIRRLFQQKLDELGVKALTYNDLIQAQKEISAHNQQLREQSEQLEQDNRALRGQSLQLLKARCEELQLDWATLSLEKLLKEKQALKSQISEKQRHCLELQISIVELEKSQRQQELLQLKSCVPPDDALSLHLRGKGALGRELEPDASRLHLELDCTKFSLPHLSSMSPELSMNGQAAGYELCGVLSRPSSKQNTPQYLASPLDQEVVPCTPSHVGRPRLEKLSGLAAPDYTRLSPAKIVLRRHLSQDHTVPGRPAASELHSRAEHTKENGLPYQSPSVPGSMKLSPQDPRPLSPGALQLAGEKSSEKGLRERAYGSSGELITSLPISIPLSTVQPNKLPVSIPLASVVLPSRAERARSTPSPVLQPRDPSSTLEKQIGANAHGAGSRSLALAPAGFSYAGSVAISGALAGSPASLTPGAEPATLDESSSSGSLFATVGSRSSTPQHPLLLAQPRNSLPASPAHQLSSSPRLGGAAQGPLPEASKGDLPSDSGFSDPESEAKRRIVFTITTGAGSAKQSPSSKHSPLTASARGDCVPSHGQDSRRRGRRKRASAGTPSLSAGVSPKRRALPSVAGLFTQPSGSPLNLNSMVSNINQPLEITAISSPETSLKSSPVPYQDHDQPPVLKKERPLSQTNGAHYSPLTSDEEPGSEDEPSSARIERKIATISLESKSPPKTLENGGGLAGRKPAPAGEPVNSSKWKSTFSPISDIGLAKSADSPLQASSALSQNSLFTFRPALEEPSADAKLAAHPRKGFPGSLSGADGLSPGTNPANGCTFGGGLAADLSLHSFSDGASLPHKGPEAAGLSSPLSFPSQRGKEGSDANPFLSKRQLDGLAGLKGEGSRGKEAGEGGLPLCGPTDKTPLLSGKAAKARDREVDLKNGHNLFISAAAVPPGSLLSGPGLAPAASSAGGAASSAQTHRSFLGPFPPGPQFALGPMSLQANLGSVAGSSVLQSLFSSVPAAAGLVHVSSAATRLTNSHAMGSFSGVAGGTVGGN
Series [4] concerns Escherichia coli. Nature of the series: Antibacterial activity against Escherichia coli ATCC 8739 assessed as zone of inhibition at 50 ug/disc. The class given is functional. The settings on record: read-out: DIZ.
In series [5] the test system is Staphylococcus aureus. The series is described as follows: Antibacterial activity against Staphylococcus aureus 1199-3. It counts as functional.
For series [6], the system named is Staphylococcus aureus. Nature of the series: Antibacterial activity against Staphylococcus aureus 1199B. It counts as functional.
Series [7] relates to Staphylococcus aureus. The series is described as follows: Antibacterial activity against glycopeptide-intermediate Staphylococcus aureus. It counts as functional.
Series [8] has as its system Staphylococcus aureus. Nature of the series: Antibacterial activity against Staphylococcus aureus 1199. It counts as functional.
Series [9] deals with Staphylococcus aureus. The series is described as follows: Antibacterial activity against Staphylococcus aureus ATCC 6538 assessed as zone of inhibition at 100 ug/disc. The class given is functional. To be noted: read-out: DIZ.
Another series concerns Kasumi 1. Nature of the series: Antiproliferative activity against human Kasumi-1 cells. The class given is functional, cell-based.
The next series has as its system MV4-11. Nature of the series: Antiproliferative activity against human MV4-11 cells. The class given is functional, cell-based.
A further series has as its system Enterococcus. Nature of the series: Antibacterial activity against Enterococcus. The class given is functional.
In a further series the test system is Klebsiella pneumoniae. The series is described as follows: Antibacterial activity against Klebsiella pneumoniae. It counts as functional.
The test system of series [10] is Escherichia coli. The series is described as follows: Antibacterial activity against Escherichia coli. The class given is functional.
In series [11] the test system is Staphylococcus aureus. The series is described as follows: Antibacterial activity against Staphylococcus aureus. The class given is functional.
In a further series the test system is Shigella. Nature of the series: Antibacterial activity against Shigella. It counts as functional.
The subject of another series is Proteus. Nature of the series: Antibacterial activity against Proteus. It counts as functional.
The next series relates to Plasmodium vinckei. The series is described as follows: Antimalarial activity against Plasmodium vinckei infected in ip dosed mouse. It counts as functional.
Series [12] has as its system Plasmodium falciparum. Nature of the series: Potency index, ratio of chloroquine IC50 to compound IC50 for antimalarial activity against chloroquine-resistant Plasmodium falciparum K1. It counts as functional.
A further series deals with HL-60. The series is described as follows: Antiproliferative activity against human HL60 cells. It counts as functional, cell-based.
A further series deals with Plasmodium berghei. The series is described as follows: Antimalarial activity against Plasmodium berghei N/13 infected in MF1 mouse. It counts as functional. The settings on record: read-out: ID50 (the source's name).
Series [13] concerns Plasmodium falciparum. The series is described as follows: Antimalarial activity against chloroquine-sensitive Plasmodium falciparum 3D7. The class given is functional, organism-based.
Series [14] relates to Plasmodium falciparum. Nature of the series: Antimalarial activity against chloroquine-resistant Plasmodium falciparum K1. The class given is functional, organism-based.
For series [15], the system named is Plasmodium falciparum. The series is described as follows: Antimalarial activity against pfmdr1-overexpressing chloroquine-resistant Plasmodium falciparum K1mef. To be noted: K1 mef. The class given is functional, organism-based.
Series [16] has as its system Plasmodium falciparum. The series is described as follows: Antimalarial activity against chloroquine-sensitive Plasmodium falciparum D10. The class given is functional, organism-based.
The next series concerns MDA-MB-468. The series is described as follows: Antiproliferative activity against human MDA-MB-468 cells. It counts as functional.
The test system of another series is MCF7. Nature of the series: Antiproliferative activity against human MCF7 cells. The class given is functional.
Series [17] in a line: Selectivity index, ratio of CC50 for human MRC5 cells to IC50 for chloroquine-resistant Plasmodium falciparum FcB1. The class given is toxicity. The settings on record: read-out: Ratio CC50/IC50.
Series [18] deals with Plasmodium falciparum. Nature of the series: Antimalarial activity against chloroquine-resistant Plasmodium falciparum FcB1. It counts as functional, organism-based. The settings on record: FcB1/Columbia.
Series [19] in a line: Cytotoxicity against human MRC5 cells. The class given is cell-based.

Molecules are shown by their SMILES. Values after ≈ are worked out from the molar mass of the structure shown.

For `Clc1ccc2c(NCCOCCNc3ccnc4cc(Cl)ccc34)ccnc2c1`, the half-maximal inhibitory concentration (IC50) in the series with Plasmodium falciparum [1] and in the series on Plasmodium falciparum [2] was 1.2 to 89 nM throughout.
`Cc1cc(Nc2ccc3nc(C)cc(N)c3c2)nc(Nc2ccc3nc(C)cc(N)c3c2)n1`: the half-inhibitory concentration (IC50) in series [3] amounted to 1500 nM.
With `O=C(O)c1cn(C2CC2)c2cc(N3CCNCC3)c(F)cc2c1=O` [CIPROFLOXACIN], the zone of inhibition at 50 µg/disc with Escherichia coli [4] was determined as 36 mm. Moreover, the minimum inhibitory concentration (MIC) in the series on Staphylococcus aureus [5] is 0.125 to 16 µg/mL (≈ 0.377 to 48.3 µM); in the series with Staphylococcus aureus [6], 0.125 to 16 µg/mL (≈ 0.377 to 48.3 µM); against Staphylococcus aureus [7] it was greater than 16 µg/mL; with Staphylococcus aureus [8] it was 0.125 to 16 µg/mL (≈ 0.377 to 48.3 µM). In addition, the zone of inhibition at 100 µg/disc with Staphylococcus aureus [9] was determined as 38 mm.
`Cc1cc(N)c2cc(Nc3cc(Nc4ccc5nc(C)cc(N)c5c4)ncn3)ccc2n1`: the IC50 with Kasumi 1 was found to be 45800 nM; in the series on MV4-11 it was 30500 nM; in [3], 1060 nM.
As to `O=C(O)c1cn(C2CC2)c2cc(N3CCN(c4nc(N5CCN(c6cc7c(cc6F)c(=O)c(C(=O)O)cn7C6CC6)CC5)c(F)c(S(=O)(=O)c5ccccc5)c4F)CC3)c(F)cc2c1=O`, the minimal inhibitory concentration (MIC) against Enterococcus, in the series on Klebsiella pneumoniae, in the series on Escherichia coli [10], against Staphylococcus aureus [11], in the series with Shigella and with Proteus was 0.25 to 2 µg/mL (≈ 0.274 to 2.19 µM) each time.
`c1ccc2c(c1)nc(NCCCN1CCN(CCCNc3nc4ccccc4c4sccc34)CC1)c1ccsc12` returned an ED50 in the series with Plasmodium vinckei of 30 mg/kg.
`CCN(CC)CCCC(C)Nc1cc(CCCCCCCCCCCCc2cc(NC(C)CCCN(CC)CC)c3ccccc3n2)nc2ccccc12` (stereo not given): the “Ratio IC50” value with Plasmodium falciparum [12] turned out to be 31.7.
For the compound `O=C(O)c1cn(C2CC2)c2cc(N3CCN(c4nc(Cl)nc(N5CCN(c6cc7c(cc6F)c(=O)c(C(=O)O)cn7C6CC6)CC5)n4)CC3)c(F)cc2c1=O`, the MIC against Enterococcus, against Klebsiella pneumoniae, against Escherichia coli [10], against Staphylococcus aureus [11], in the series on Shigella and against Proteus was 0.25 to 2 µg/mL (≈ 0.323 to 2.58 µM) throughout.
Take `C[C@H]1COc2c(N3CCN(C)CC3)c(F)cc3c(=O)c(-c4nn5c(-c6cn(C7CC7)c7cc(N8CCNCC8)c(F)cc7c6=O)nnc5s4)cn1c23`: 120 nM corresponded to half-maximal inhibition with HL-60 (IC50). This counts as sub-micromolar.
For the compound `Clc1ccc2c(NCCCCCCNCCCCCCNc3ccnc4cc(Cl)ccc34)ccnc2c1`, the IC50 in the series with Plasmodium falciparum [1] and in the series with Plasmodium falciparum [2] was 1.2 to 89 nM each time.
For `CN(CCCNc1ccnc2cc(Cl)ccc12)CCCNc1ccnc2cc(Cl)ccc12`, the IC50 in the series on Plasmodium falciparum [1] and with Plasmodium falciparum [2] was 1.2 to 89 nM throughout.
As to `Clc1ccc2c(N[C@@H]3CCCC[C@H]3Nc3ccnc4cc(Cl)ccc34)ccnc2c1` (relative stereo), the concentration for half-maximal inhibition (IC50) with Plasmodium falciparum [1] worked out at 1 nM; with Plasmodium falciparum [2], 1.4 nM. The ED50 with Plasmodium berghei came out at 3 mg/kg.
In the case of `CCC(C)[C@H](Nc1ccnc2cc(Cl)ccc12)C(=O)NCCNc1ccnc2cc(Cl)ccc12` (stereo not given in full), the 50% inhibitory concentration (IC50) in the series on Plasmodium falciparum [13] was 24 nM; with Plasmodium falciparum [14], 26 nM.
On to `CCC1C[C@@H]2CC[C@H]1CC2C(O)c1ccnc2c(NC(=O)CCCCC(=O)Nc3cccc4c(C(O)C5C[C@@H]6CC[C@H]5C(CC)C6)ccnc34)cccc12` (stereo not given in full), for which the IC50 amounted to 20 nM in the series with Plasmodium falciparum [14], 20 nM in the series on Plasmodium falciparum [15] and 50 nM in the series with Plasmodium falciparum [16].
In series [3], `Cc1cc(N)c2cc(Nc3ccnc(Nc4ccc5nc(C)cc(N)c5c4)n3)ccc2n1` showed an IC50 of 1080 nM. That is a single-digit micromolar value.
`FC(F)(F)c1ccc2c(N[C@@H]3CCCC[C@H]3Nc3ccnc4cc(C(F)(F)F)ccc34)ccnc2c1`: the ED50 in the series with Plasmodium berghei was 5.9 mg/kg.
Consider `Clc1ccc2c(NCCNc3ccnc4cc(Cl)ccc34)ccnc2c1`, for which the 50% growth inhibitory concentration (GI50) was found to be 7350 nM with MDA-MB-468 and 14800 nM in the series on MCF7.
In series [3], `Cc1cc(Nc2ccc3nc(C)cc(O)c3c2)nc(Nc2ccc3nc(C)cc(O)c3c2)n1` showed a half-inhibitory concentration (IC50) of 4350 nM.
On to `Clc1ccc2c(NCCCN3CCN(CCCNCc4ccnc5ccccc45)CC3)ccnc2c1`, for which, in series [17], the selectivity ratio came out at 816. Further, the half-inhibitory concentration (IC50) with Plasmodium falciparum [18] turned out to be 20.1 nM. This compound also came in with a CC50 in series [19] of 16400 nM.
In the case of `Clc1ccc2c(NCCCOCCCCOCCCNc3ccnc4cc(Cl)ccc34)ccnc2c1`, the IC50 in the series on Plasmodium falciparum [1] and with Plasmodium falciparum [2] was 1.2 to 89 nM in each case.
As for `Clc1ccc2c(NCCOCCOCCNc3ccnc4cc(Cl)ccc34)ccnc2c1`, the IC50 in the series on Plasmodium falciparum [1] and in the series on Plasmodium falciparum [2] was 1.2 to 89 nM each time.
Turning to `CCn1cc(C(=O)O)c(=O)c2cnc(N3CCNCC3)nc21` [PIPEMIDIC ACID], the minimum inhibitory concentration (MIC) against Staphylococcus aureus [5] was 0.125 to 16 µg/mL (≈ 0.412 to 52.7 µM); in the series with Staphylococcus aureus [6] it was 0.125 to 16 µg/mL (≈ 0.412 to 52.7 µM); against Staphylococcus aureus [7] it was greater than 16 µg/mL; against Staphylococcus aureus [8], 0.125 to 16 µg/mL (≈ 0.412 to 52.7 µM).
In the case of `COc1cc(C)nc2ccc(Nc3cc(C)nc(Nc4ccc5nc(C)cc(OC)c5c4)n3)cc12`, 21700 nM corresponded to half-maximal inhibition in [3] (IC50).
Take `Clc1ccc2c(NCCCNCCNc3ccnc4cc(Cl)ccc34)ccnc2c1`: the half-inhibitory concentration (IC50) with Plasmodium falciparum [1] and with Plasmodium falciparum [2] was 1.2 to 89 nM throughout.
The compound `CN1CCN(c2cc3c(cc2F)c(=O)c(-c2nn4c(-c5cn(C6CC6)c6cc(N7CCNCC7)c(F)cc6c5=O)nnc4s2)cn3C2CC2)CC1` had a half-inhibitory concentration (IC50) in the series with HL-60 of 540 nM. That is a sub-micromolar value.
With `Clc1ccc2c(NCCCOCCOCCOCCCNc3ccnc4cc(Cl)ccc34)ccnc2c1`, the IC50 in the series on Plasmodium falciparum [1] and with Plasmodium falciparum [2] was 1.2 to 89 nM in each case.
Regarding `CCn1cc(C(=O)O)c(=O)c2cc(F)c(N3CCNCC3)cc21` [NORFLOXACIN], the MIC in the series on Staphylococcus aureus [5] was 0.125 to 16 µg/mL (≈ 0.391 to 50.1 µM); with Staphylococcus aureus [6] it was 0.125 to 16 µg/mL (≈ 0.391 to 50.1 µM); in the series on Staphylococcus aureus [7] it was greater than 16 µg/mL; with Staphylococcus aureus [8] it was 0.125 to 16 µg/mL (≈ 0.391 to 50.1 µM).
